Measurements from US10274483B2, “Fluorescence method for sensing chlorinated disaccharides” (THE REGENTS OF THE UNIVERSITY OF CALIFORNIA, priority 2014, dated 2019).

Assays:
Format in all cases: binding
[1] = oBBV-HPTS two component fluorescence assay, lactulose
Excerpt: (§1) Boronic acids form covalent bonds with the cis-1, 2-hydroxyl groups that are commonly found in saccharides. Based on this property, a two-component sensing system is developed, comprising a fluorescent dye that serves as the indicator unit and a boronic acid-appended viologen that serves a dual function as fluorescence quencher and saccharide receptor. Dye and viologen form a non-fluorescent ground state complex. Binding to a diol weakens the complex. Subsequent dissociation from the fluorescent dye results in an increase in fluorescence dependent on diol concentration.
(§2) Urine has been analyzed for the permeability markers sucrose (stomach), lactulose and mannitol (small intestine) and sucralose (colon). The viologen oBBV was used with the fluorophore HPTS (Exc. 420 or 485 nm, Em 535 nm). Fluorescence was measured with a benchtop plate reader. HPTS is normally read at 420/535 nm, but performs well at 485/535 nm, matching FITC filter sets normally found in clinical labs. […] Lower limit of quantification (LLOQ) and dynamic range are suitable for typical urine samples.

[2] = oBBV-HPTS two component fluorescence assay, sucrose
Procedure: as §2
(§3) Developing a degradation pathway of sucralose into a saccharide that consists of the hydroxyl groups is needed for boronic acid recognition, which allows for the molecular recognition of sucralose. Sucralose contains halogenated carbons, which are easily modified via a hydroxyl anion or radical to de-chlorinate sucralose to form a detectable saccharide. Based on literature precedence, sucralose is modified through advanced oxidation photolysis to generate a fructose sugar alcohol derivative of sucrose (Ref 38). […] This has been accomplished by generating hydroxyl anion and radicals via the Fenton chemical reaction (Ref 39) in the presence of sucralose, and upon reaction completion, the modified sucralose solution was tested against the oBBV-HPTS system. Using the disclosed two component system, it is confirmed that sucralose is modified.

[3] = oBBV-HPTS two component fluorescence assay, mannitol
Excerpt: as §1, §2

[4] = oBBV-HPTS two component fluorescence assay, Fenton-modified sucralose; conditions: sucralose after Fenton reaction, 1 hr; sodium phosphate and HEPES buffer, 0.01% Triton-X100, pH 7.4 (FIG. 4)
Procedure: FIG. 4 is a graph showing the results of a proof of concept experiment to measure modified sucralose after 1 hr of reaction time. This study was performed with ortho bis boronic acid viologen (oBBV) in sodium phosphate and HEPES buffer 0.1M containing 0.01% Triton-X100, pH 7.4. The fluorescence intensity is the normalized intensity where F=fluorescence intensity after saccharide addition and Fo=fluorescence intensity of the quenched reporter dye.
Developing a degradation pathway of sucralose into a saccharide that consists of the hydroxyl groups is needed for boronic acid recognition, which allows for the molecular recognition of sucralose. […]
This has been accomplished by generating hydroxyl anion and radicals via the Fenton chemical reaction (Ref 39) in the presence of sucralose, and upon reaction completion, the modified sucralose solution was tested against the oBBV-HPTS system. Using our two component system, we have confirmed that sucralose can be modified and measured by adding increasing amounts of this modified saccharide, a significant fluorescence signal was obtained.
A solution of sucralose (20 mM) in the presence of ferrous iron (II) sulfate and hydrogen peroxide was allowed to stir for 1 hour and dilutions were made to determine if a fluorescence signal can be obtained. […]

[5] = oBBV-HPTS two component fluorescence assay, sucralose
Procedure: as §2, §3

[6] = fluorophore HPTS, urine, Exc. 420 or 485 nm, Em 535 nm (FIG. 3)

OB(O)c1ccccc1C[n+]1ccc(-c2cc[n+](Cc3ccccc3B(O)O)cc2)cc1.[Br-].[Br-] [oBBV, 4,4′-N,N′-bis-(benzyl-2-boronic acid)-dipyridinium dibromide]
sensitivity to lactulose [1, 6]: greatest preferential sensitivity | de-quenching of HPTS fluorescence in the presence of lactulose ([1]; urine (FIG. 3)): selectively de-quenched | fluorescence signal with sucrose ([2]; tested in parallel with modified sucralose (FIG. 4)): no obtainable signal | de-quenching of HPTS fluorescence in the presence of sucrose ([2]; urine (FIG. 3)): not | sensitivity to mannitol [3, 6]: good sensitivity | de-quenching of HPTS fluorescence in the presence of mannitol ([3]; urine (FIG. 3)): selectively de-quenched | fluorescence signal on adding increasing amounts of modified sucralose [4]: increase in fluorescence signal | fluorescence signal with sucralose ([5]; unmodified, tested in parallel with modified sucralose (FIG. 4)): no obtainable signal | de-quenching of HPTS fluorescence in the presence of sucralose ([5]; urine (FIG. 3)): not
